Source: the supplement of paper PMC11208160

Assay: recombinant UMI read abundance after kanamycin selection (control-corrected) (log10(CPM+1)); higher = more efficient recombination; extreme values may be limits of the assay; sequences stand for … in AGTGCAGAGAAAATCGGCCAGTTTTCTCTGCCTGCAGTCCGCATGCCGTGGGACCCCTTGGGTTCTAACCTGTTGCCTAGATTTATGCAGCGGACTGCCTTTCTCCCAAAGTGATAAACCGG…AGGTTGGTTTCACT; site = the 11-nt donor
In short: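 Each donor and donor-binding-loop pair was tracked by a 12-nt UMI on a plasmid carrying a promoterless kanamycin gene. With a second plasmid supplying a fixed target and T7-inducible IS621 bridge recombinase, the pool was plated in Escherichia coli on IPTG (0.07 mM) plus kanamycin or unselected. Sequencing of recombinant UMIs across the donor–target junction gave counts expressed as log10(CPM+1) after replicate averaging and control-derived scaling.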
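Note: IS621 bridge recombinase in Escherichia coli cells against a fixed T5 target plasmid.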

| Sequence | recombinant UMI read abundance (log10) |
| --- | --- |
| TAGAGTCCATGGACCGGTTTTCCCGGTAATCCGTATTTGTA (site TAGAGTCCTTA) | 1.37 |
| TAGAGTCCATGGACCGGTTTTCCCGGTAATCCGTATTTGTA (site TATAGTCCTTA) | 0.132 |
| TAGATGACATGGACCGGTTTTCCCGGTAATCCGTATTTGCT (site TAGATGACTAG) | 2.49 |
| TAGATTACATGGACCGGTTTTCCCGGTAATCCGTATTTGCA (site TAGAATACTTG) | 0.304 |
| TAGATTACATGGACCGGTTTTCCCGGTAATCCGTATTTGCA (site TAGACTACTTG) | 0.98 |
| TAGATTACATGGACCGGTTTTCCCGGTAATCCGTATTTGCA (site TAGAGTACTTG) | 0.616 |
| TAGATTACATGGACCGGTTTTCCCGGTAATCCGTATTTGCA (site TAGATTACTTG) | 1.52 |
| TAGCCCACATGGACCGGTTTTCCCGGTAATCCGTATTTGTT (site TAGCCCACTAA) | 0.409 |
| TAGCCGGCATGGACCGGTTTTCCCGGTAATCCGTATTTGTA (site TAGCCGGCTTA) | 0.599 |
| TAGCTGGCATGGACCGGTTTTCCCGGTAATCCGTATTTGAA (site TAGCTAGCTTT) | 0.588 |
| TAGCTGGCATGGACCGGTTTTCCCGGTAATCCGTATTTGAA (site TAGCTCGCTTT) | 0.0161 |
| TAGCTGGCATGGACCGGTTTTCCCGGTAATCCGTATTTGAA (site TAGCTGGCTTT) | 0.732 |
| TAGCTGGCATGGACCGGTTTTCCCGGTAATCCGTATTTGAA (site TAGCTTGCTTT) | 0 |
| TAGCTTACATGGACCGGTTTTCCCGGTAATCCGTATTTGTC (site TAGCTTACTGA) | 1.56 |
| TAGCTTCCATGGACCGGTTTTCCCGGTAATCCGTATTTGGG (site TAGCTTCCTCC) | 0.0588 |
| TAGCTTGCATGGACCGGTTTTCCCGGTAATCCGTATTTGAA (site TAGCTAGCTTT) | 0.0193 |
| TAGCTTGCATGGACCGGTTTTCCCGGTAATCCGTATTTGAA (site TAGCTCGCTTT) | 0.0167 |
| TAGCTTGCATGGACCGGTTTTCCCGGTAATCCGTATTTGAA (site TAGCTGGCTTT) | 0.02 |
| TAGCTTGCATGGACCGGTTTTCCCGGTAATCCGTATTTGAA (site TAGCTTGCTTT) | 1.4 |
| TAGCTTTCATGGACCGGTTTTCCCGGTAATCCGTATTTGGT (site TAGCATTCTAC) | 0.374 |
| TAGCTTTCATGGACCGGTTTTCCCGGTAATCCGTATTTGGT (site TAGCCTTCTAC) | 0.157 |
| TAGCTTTCATGGACCGGTTTTCCCGGTAATCCGTATTTGGT (site TAGCGTTCTAC) | 0 |
| TAGCTTTCATGGACCGGTTTTCCCGGTAATCCGTATTTGGT (site TAGCTTTCTAC) | 0.807 |
| TAGGAAACATGGACCGGTTTTCCCGGTAATCCGTATTTGCG (site TAGGAAACTCG) | 2.39 |
| TAGGAAACATGGACCGGTTTTCCCGGTAATCCGTATTTGCG (site TAGGAACCTCG) | 0 |

| Sequence | recombinant UMI read abundance (log10) |
| --- | --- |
| TAGGAAACATGGACCGGTTTTCCCGGTAATCCGTATTTGCG (site TAGGAAGCTCG) | 2.11 |
| TAGGAAACATGGACCGGTTTTCCCGGTAATCCGTATTTGCG (site TAGGAATCTCG) | 1.75 |
| TAGGCTGCATGGACCGGTTTTCCCGGTAATCCGTATTTGGT (site TAGGCTGCTAC) | 0.811 |
| TAGGGATCATGGACCGGTTTTCCCGGTAATCCGTATTTGCG (site TAGGAATCTCG) | 2.07 |
| TAGGGATCATGGACCGGTTTTCCCGGTAATCCGTATTTGCG (site TAGGCATCTCG) | 0.735 |
| TAGGGATCATGGACCGGTTTTCCCGGTAATCCGTATTTGCG (site TAGGGATCTCG) | 2.78 |
| TAGGGATCATGGACCGGTTTTCCCGGTAATCCGTATTTGCG (site TAGGTATCTCG) | 1.27 |
| TAGGGATCATGGACCGGTTTTCCCGGTAATCCGTATTTGCT (site TAGGGATCTAG) | 2.31 |
| TAGGGGACATGGACCGGTTTTCCCGGTAATCCGTATTTGTT (site TAGGGGACTAA) | 1.75 |
| TAGGGTGCATGGACCGGTTTTCCCGGTAATCCGTATTTGAC (site TAGGGTGCTGT) | 2.6 |
| TAGGGTGCATGGACCGGTTTTCCCGGTAATCCGTATTTGCC (site TAGGGTGCTGG) | 2.58 |
| TAGGTTACATGGACCGGTTTTCCCGGTAATCCGTATTTGAT (site TAGGTTACTAT) | 1.79 |
| TAGGTTGCATGGACCGGTTTTCCCGGTAATCCGTATTTGGT (site TAGGTTGCTAC) | 1.27 |
| TAGTCTTCATGGACCGGTTTTCCCGGTAATCCGTATTTGGT (site TAGACTTCTAC) | 0.017 |
| TAGTCTTCATGGACCGGTTTTCCCGGTAATCCGTATTTGGT (site TAGCCTTCTAC) | 0.322 |
| TAGTCTTCATGGACCGGTTTTCCCGGTAATCCGTATTTGGT (site TAGGCTTCTAC) | 0.012 |
| TAGTCTTCATGGACCGGTTTTCCCGGTAATCCGTATTTGGT (site TAGTCTTCTAC) | 0.376 |
| TAGTGTACATGGACCGGTTTTCCCGGTAATCCGTATTTGGT (site TAGTGTACTAC) | 0.534 |
| TAGTTGACATGGACCGGTTTTCCCGGTAATCCGTATTTGCT (site TAATTGACTAG) | 1.17 |
| TAGTTGACATGGACCGGTTTTCCCGGTAATCCGTATTTGCT (site TACTTGACTAG) | 0.55 |
| TAGTTGACATGGACCGGTTTTCCCGGTAATCCGTATTTGCT (site TAGTTGACTAG) | 2.13 |
| TAGTTGACATGGACCGGTTTTCCCGGTAATCCGTATTTGCT (site TATTTGACTAG) | 0.0101 |
| TATAAGACATGGACCGGTTTTCCCGGTAATCCGTATTTGAC (site TATAAGACTGT) | 2.01 |
| TATAATTCATGGACCGGTTTTCCCGGTAATCCGTATTTGAC (site TATAATTCTGT) | 0.209 |
| TATAGCCCATGGACCGGTTTTCCCGGTAATCCGTATTTGTA (site TATAGCCCTTA) | 0.181 |

| Sequence | recombinant UMI read abundance (log10) |
| --- | --- |
| TATAGCGCATGGACCGGTTTTCCCGGTAATCCGTATTTGTG (site TATAGCGCTCA) | 0.205 |
| TATAGGACATGGACCGGTTTTCCCGGTAATCCGTATTTGAT (site TATAGGACTAT) | 1.11 |
| TATATGGCATGGACCGGTTTTCCCGGTAATCCGTATTTGTG (site TATATGGCTCA) | 0.368 |
| TATATGGCATGGACCGGTTTTCCCGGTAATCCGTATTTGTG (site TATCTGGCTCA) | 0.00271 |
| TATATGGCATGGACCGGTTTTCCCGGTAATCCGTATTTGTG (site TATGTGGCTCA) | 0.00727 |
| TATATGGCATGGACCGGTTTTCCCGGTAATCCGTATTTGTG (site TATTTGGCTCA) | 0.0941 |
| TATATTGCATGGACCGGTTTTCCCGGTAATCCGTATTTGTC (site TATATTGCTGA) | 0 |
| TATCCCGCATGGACCGGTTTTCCCGGTAATCCGTATTTGCC (site TATCCCGCTGG) | 1.79 |
| TATCCTGCATGGACCGGTTTTCCCGGTAATCCGTATTTGAC (site TATCCTGCTGT) | 0 |
| TATCGAACATGGACCGGTTTTCCCGGTAATCCGTATTTGTT (site TATCGAACTAA) | 0.00888 |
| TATCTCACATGGACCGGTTTTCCCGGTAATCCGTATTTGAC (site TATCTCACTGT) | 2.11 |
| TATCTTTCATGGACCGGTTTTCCCGGTAATCCGTATTTGAT (site TATCTTTCTAT) | 0 |
| TATGCCACATGGACCGGTTTTCCCGGTAATCCGTATTTGTA (site TATGCCACTTA) | 0.598 |
| TATGGCCCATGGACCGGTTTTCCCGGTAATCCGTATTTGAT (site TATGGCCCTAT) | 0.0149 |
| TATGTAGCATGGACCGGTTTTCCCGGTAATCCGTATTTGTT (site TATGTAGCTAA) | 1.23 |
| TATTCAACATGGACCGGTTTTCCCGGTAATCCGTATTTGCA (site GGGAACGCTAA) | 0.00333 |
| TATTCAACATGGACCGGTTTTCCCGGTAATCCGTATTTGTG (site TATTCAACTCA) | 0.011 |
| TATTGAGCATGGACCGGTTTTCCCGGTAATCCGTATTTGGG (site TAATGAGCTCC) | 0.0665 |
| TATTGAGCATGGACCGGTTTTCCCGGTAATCCGTATTTGGG (site TACTGAGCTCC) | 0.0155 |
| TATTGAGCATGGACCGGTTTTCCCGGTAATCCGTATTTGGG (site TAGTGAGCTCC) | 0.0187 |
| TATTGAGCATGGACCGGTTTTCCCGGTAATCCGTATTTGGG (site TATTGAGCTCC) | 0 |
| TATTGATCATGGACCGGTTTTCCCGGTAATCCGTATTTGTG (site TATTGATCTCA) | 0.805 |
| TATTGTTCATGGACCGGTTTTCCCGGTAATCCGTATTTGTG (site TATTGTTCTCA) | 0.00773 |
| TATTTGACATGGACCGGTTTTCCCGGTAATCCGTATTTGCT (site TAATTGACTAG) | 1.9 |
| TATTTGACATGGACCGGTTTTCCCGGTAATCCGTATTTGCT (site TACTTGACTAG) | 0.882 |
